What all share (format): biochemical
One assay concerns the target T1, PKD1 (Homo sapiens, UniProt Q15139).
T1 sequence (Q15139 1-912): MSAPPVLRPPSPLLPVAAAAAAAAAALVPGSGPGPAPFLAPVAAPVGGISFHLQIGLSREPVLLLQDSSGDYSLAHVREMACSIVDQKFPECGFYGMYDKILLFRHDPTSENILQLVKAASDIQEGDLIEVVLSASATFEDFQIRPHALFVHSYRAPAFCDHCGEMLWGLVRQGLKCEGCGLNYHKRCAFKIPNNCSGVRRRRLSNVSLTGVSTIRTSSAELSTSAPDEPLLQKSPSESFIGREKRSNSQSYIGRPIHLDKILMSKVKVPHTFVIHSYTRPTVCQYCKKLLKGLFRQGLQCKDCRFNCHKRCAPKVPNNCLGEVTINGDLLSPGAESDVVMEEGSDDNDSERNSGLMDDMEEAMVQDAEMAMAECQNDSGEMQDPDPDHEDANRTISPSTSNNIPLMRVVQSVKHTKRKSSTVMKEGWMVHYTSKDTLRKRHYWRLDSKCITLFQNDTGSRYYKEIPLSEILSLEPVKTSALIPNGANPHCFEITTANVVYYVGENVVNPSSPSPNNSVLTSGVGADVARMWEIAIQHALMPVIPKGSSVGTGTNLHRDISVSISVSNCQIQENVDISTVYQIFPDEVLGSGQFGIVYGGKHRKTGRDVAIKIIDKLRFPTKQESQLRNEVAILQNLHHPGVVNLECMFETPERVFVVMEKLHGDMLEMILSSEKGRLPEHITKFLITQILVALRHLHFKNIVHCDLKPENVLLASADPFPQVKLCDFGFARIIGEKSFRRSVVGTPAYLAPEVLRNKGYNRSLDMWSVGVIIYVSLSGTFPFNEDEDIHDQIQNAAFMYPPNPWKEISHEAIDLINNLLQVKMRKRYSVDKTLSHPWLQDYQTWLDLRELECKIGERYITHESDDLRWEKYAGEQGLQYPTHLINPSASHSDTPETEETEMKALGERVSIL
The assay can be described thus: Kinase screen: PKD1 assay. As for the experimental part:
(§1) Generally, the same procedure was used for all assays. Since the total assay volume was 25.5 microliters, 0.5 microliters of inhibitors at 51× assay concentration were added to the plates before any other addition.
(§2) The basic procedure was to add 0.5 microliters inhibitor/control in DMSO to plate. Fifteen microliters of enzyme/substrate/buffer mix were added and incubated for 5 min. Ten microliters MgATP at the relevant concentration were added and incubated for 30 min. The assay was stopped by adding 5 microliters of 3% orthophosphoric acid. The assay was transferred to a p81 filter plate and read in a scintillation counter of 30 sec/well. Note that this assay procedure was not followed for MKK1, which instead involved a two-step assay, and PKC alpha, which required the addition of lipid vesicles.
PKD1 assay: PKD1 (5-20 mU diluted in 50 mM Tris pH 7.5, 0.1 mM EGTA, 0.1% b-mercaptoethanol, 1 mg/ml BSA) was assayed substrate peptide ([…]) (SEQ ID NO: 3) in a final volume of 25.5 μl containing 50 mM Tris pH 7.5, 0.05% b-mercaptoethanol, 30 μM substrate peptide, 10 mM magnesium acetate and 0.05 mM [33P-g-ATP] (50-1000 cpm/pmole) and incubated for 30 min at room temperature. Assays were stopped by addition of 5 μl of 0.5 M (3%) orthophosphoric acid and then harvested onto P81 Unifilter plates with a wash buffer of 50 mM orthophosphoric acid.

The next assay deals with T2, PDK1 (Homo sapiens, UniProt O15530).
T2 sequence (O15530 1-556): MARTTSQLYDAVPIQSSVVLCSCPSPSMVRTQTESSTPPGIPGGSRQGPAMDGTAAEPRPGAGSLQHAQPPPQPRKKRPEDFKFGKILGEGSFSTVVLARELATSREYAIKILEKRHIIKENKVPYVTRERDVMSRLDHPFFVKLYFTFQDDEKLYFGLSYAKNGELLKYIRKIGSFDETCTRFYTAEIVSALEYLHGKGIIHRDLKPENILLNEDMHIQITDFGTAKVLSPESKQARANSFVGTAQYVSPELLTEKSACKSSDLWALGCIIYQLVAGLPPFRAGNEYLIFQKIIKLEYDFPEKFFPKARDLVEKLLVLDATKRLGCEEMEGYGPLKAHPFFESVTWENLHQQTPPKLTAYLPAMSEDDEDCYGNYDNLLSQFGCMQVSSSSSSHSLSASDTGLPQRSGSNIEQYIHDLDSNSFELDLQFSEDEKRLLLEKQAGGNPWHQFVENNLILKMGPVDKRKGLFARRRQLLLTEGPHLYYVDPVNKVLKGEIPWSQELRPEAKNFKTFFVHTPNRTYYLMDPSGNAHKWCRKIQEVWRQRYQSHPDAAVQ
Briefly: Kinase screen: PDK1 assay. On the procedure:
as §1, §2
(50-1000 cpm/pmole) and incubated for 30 min at room temperature Assays were stopped by addition of 5 μl of 0.5 M (3%) orthophosphoric acid and then harvested onto P81 Unifilter plates with a wash buffer of 50 mM orthophosphoric acid.

Another assay deals with MNK1 (Homo sapiens, UniProt Q9BUB5). Briefly: Kinase screen: MNK1 assay. As for the experimental part: as §1, §2
MNK1 assay: 5-20 mU of MNK1 (diluted in 50 mM Tris (pH 7.5), 0.1 mM EGTA, 1 mg/ml BSA, 0.1%, b-Mercaptoethanol) was assayed against substrate peptide (eIF4E) in a final volume of 25.5 μl containing 50 mM Tris (pH 7.5), 0.1 mM EGTA, 0.1%, b-Mercaptoethanol, 0.5 mg/ml substrate peptide, 10 mM magnesium acetate and 0.05 mM [33P-g-ATP](500-1000 cpm/pmole) and incubated for 30 mins at room temperature. Assays were stopped by addition of 5 μl of 0.5M (3%) orthophosphoric acid. Assays were harvested onto P81 Unifilter plates using a wash buffer of 50 mM orthophosphoric acid.

In another assay the target is YES1 (Homo sapiens, UniProt P07947). The assay can be described thus: Kinase screen: YES1 assay. As to conditions: 10 micromolar compound; for remaining activity at 10 µM: read-out: mean activity remaining (as a percentage of the original activity), YES1. As for the experimental part: as §1, §2
YES1 assay: YES1 (5-20 mU diluted in 50 mM Tris pH 7.5, 0.1 mM EGTA, 1 mg/ml BSA) was assayed against a substrate peptide (Poly Glut Tyr) in a final volume of 25.5 μl containing 50 mM Tris pH 7.5, 1 mg/ml substrate peptide, 10 mM magnesium acetate and 0.02 mM [33P-g-ATP] (50-1000 cpm/pmole) and incubated for 30 min at room temperature. Assays were stopped by addition of 5 μl of 0.5 M (3%) orthophosphoric acid and then harvested onto P81 Unifilter plates with a wash buffer of 50 mM orthophosphoric acid.

Where [1] appears, read: 10 micromolar compound, read-out: mean activity remaining (as a percentage of the original activity), PKD1.
The mark [2] stands for this setting: 10 micromolar compound, read-out: mean activity remaining (as a percentage of the original activity), PDK1.
Setting [3] is: 10 micromolar compound, read-out: mean activity remaining (as a percentage of the original activity), MNK1.

Each structure is given as a SMILES string. Read-outs that look alike come from different tables or passages of the source.

MNK1, sequence (Q9BUB5 whole entry, species assumed): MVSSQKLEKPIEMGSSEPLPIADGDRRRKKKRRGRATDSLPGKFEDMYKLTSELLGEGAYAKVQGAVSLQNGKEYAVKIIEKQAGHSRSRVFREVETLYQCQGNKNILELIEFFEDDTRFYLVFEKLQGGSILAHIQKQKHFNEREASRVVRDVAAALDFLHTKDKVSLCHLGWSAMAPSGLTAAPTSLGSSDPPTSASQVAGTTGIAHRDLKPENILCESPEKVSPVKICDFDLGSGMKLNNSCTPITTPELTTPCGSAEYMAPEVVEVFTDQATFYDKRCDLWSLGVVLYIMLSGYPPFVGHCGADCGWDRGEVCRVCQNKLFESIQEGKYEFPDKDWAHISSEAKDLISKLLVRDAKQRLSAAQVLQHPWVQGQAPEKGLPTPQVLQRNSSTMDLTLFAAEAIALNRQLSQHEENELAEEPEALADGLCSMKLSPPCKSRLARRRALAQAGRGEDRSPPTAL
YES1, sequence (P07947 whole entry, species assumed): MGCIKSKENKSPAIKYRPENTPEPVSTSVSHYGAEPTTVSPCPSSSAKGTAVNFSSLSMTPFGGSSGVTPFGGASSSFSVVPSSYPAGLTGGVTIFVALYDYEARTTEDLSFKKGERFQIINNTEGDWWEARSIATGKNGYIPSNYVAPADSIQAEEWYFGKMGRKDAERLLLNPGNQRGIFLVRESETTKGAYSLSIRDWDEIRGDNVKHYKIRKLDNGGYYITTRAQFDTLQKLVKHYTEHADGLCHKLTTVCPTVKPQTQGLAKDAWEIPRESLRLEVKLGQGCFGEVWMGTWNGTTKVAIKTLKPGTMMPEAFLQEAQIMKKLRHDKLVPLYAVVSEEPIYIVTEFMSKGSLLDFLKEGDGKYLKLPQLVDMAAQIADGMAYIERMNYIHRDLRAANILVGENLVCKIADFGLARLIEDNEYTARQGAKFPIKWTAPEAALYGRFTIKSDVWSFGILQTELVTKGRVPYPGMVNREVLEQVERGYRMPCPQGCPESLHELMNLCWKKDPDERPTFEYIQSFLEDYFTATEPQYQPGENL

A word on the remaining activity: it is the signal under treatment as a percentage of the control signal. On to `CC(C)c1cnn2c(NCc3ccccc3)cc(NCCCCCCCN)nc12` [BS-181], for which the remaining activity at 10 µM was determined as 53% on PKD1 (PKD1, 10 μM, read-out: Mean Remaining Enzyme Activity (%)); 80% at PDK1 (PDK1, 10 μM, read-out: Mean Remaining Enzyme Activity (%)); 105% at MNK1 (MNK1, 10 μM, read-out: Mean Remaining Enzyme Activity (%)).

With `C=C[C@H](CO)Nc1cc(NCc2ccccc2)n2ncc(C(C)C)c2n1` [ICEC0065], the remaining activity at 10 µM on PKD1 (setting [1]) worked out at 88%; on YES1, 90%; on PDK1 (setting [2]), 78%; at MNK1 (setting [3]) it was 90%.

As for `CC(C)c1cnn2c(NCc3ccccc3)cc(N[C@@H](CO)[C@H](O)CO)nc12` [ICEC0318, (3S)-3-(7-(Benzylamino)-3-isopropylpyrazolo[1,5-a]pyrimidin-5-ylamino)butane-1,2,4-triol], the remaining activity at 10 µM is 97% at PKD1 (setting [1]), 89% at YES1, 84% at PDK1 (setting [2]) and 98% on MNK1 (setting [3]).

Turning to `CC(C)c1cnn2c(NCc3ccccc3F)cc(NCCCCCN)nc12` [ICEC-0232], the “mean activity remaining (as a percentage of the original activity), PKD1” value at PKD1 (10 micromolar compound) was 32%. For the same compound, at YES1, the “mean activity remaining (as a percentage of the original activity), YES1” value stood at 106%. On PDK1 (10 micromolar compound), the “mean activity remaining (as a percentage of the original activity), PDK1” value was found to be 101%. The “mean activity remaining (as a percentage of the original activity), MNK1” value on MNK1 (10 micromolar compound) came out at 97%.

With `CC[C@H](CO)Nc1cc(NCc2ccccc2)n2ncc(C(C)C)c2n1` [ICEC0067], the remaining activity at 10 µM on PKD1 (setting [1]) was 87%; at YES1, 87%; at PDK1 (setting [2]), 87%; at MNK1 (setting [3]), 86%.
